Data as given in PMC10451629, “Evaluation of the Effects of Heteroaryl Ethylene Molecules in Combination with Antibiotics: A Preliminary Study on Control Strains” (Antibiotics, 2023).
Values after ≈ are worked out from the molar mass of the structure shown. Values joined by “and” are separate entries in the source; they are usually repeats but may differ in a detail not shown here. Identical values can stand only once. Like-named read-outs stand apart in the source and are kept apart here. Values belong to the compound of their own block, whether it stands above or below them.

Assays:
[1] = system: CaCo2 colon-rectal cancer cell line; design: method as in in-house dataset; Log(IC50) 48h: unit not given here; conditions: in-house dataset previously tested by the authors' groups, ref in-house dataset, cited from earlier work; for IC50: 48h
E. faecalis ATCC 29212 = assay: Broth microdilution MIC; assay type: cell-based, Enterococcus faecalis; conditions: for MIC: Enterococcus faecalis
S. aureus ATCC 29213 = assay: Broth microdilution MIC; assay type: cell-based; conditions: Staphylococcus aureus
S. aureus ATCC 12598 = assay: Broth microdilution MIC; assay type: cell-based, Staphylococcus aureus; conditions: for MIC: Staphylococcus aureus
[2] = system: S. aureus ATCC BAA-1556 USA300; assay: Broth microdilution MIC; assay type: cell-based, Staphylococcus aureus; conditions: for MIC: Staphylococcus aureus, S. aureus ATCC BAA-1556 USA300, substance alone
[3] = system: K. pneumoniae ATCC 700603; assay: Broth microdilution MIC; assay type: cell-based, Klebsiella pneumoniae; conditions: Klebsiella pneumoniae, ATCC700603, K. pneumoniae ATCC 700603; substance alone; read-out: MIC
A. baumannii ATCC 17978 = assay: Broth microdilution MIC; assay type: cell-based; conditions: Acinetobacter baumannii, ATCC17978, substance alone
P. aeruginosa ATCC 27853 = assay: Broth microdilution MIC; assay type: cell-based, Pseudomonas aeruginosa; conditions: Pseudomonas aeruginosa, ATCC27853, P. aeruginosa ATCC 27853; substance alone; read-out: MIC
S. enterica ATCC 14028 = assay: Broth microdilution MIC; assay type: cell-based; conditions: Salmonella enterica, ATCC14028, substance alone
E. coli ATCC 25922 = assay: Broth microdilution MIC; assay type: cell-based; conditions: Escherichia coli, ATCC25922, substance alone, read-out: MIC
[4] = system: CaCo-2 (ATCC HTB-37) colon–rectal cancer cell line; assay: MTT cytotoxicity assay on CaCo-2 cells; assay type: cell-based, human; conditions: for IC50: Homo sapiens, CaCo-2 cell line, MTT
Method: To fully assess the biological activity of the new molecules, they were tested at different concentrations on the CaCo-2 (ATCC HTB-37) colon–rectal cancer cell line. These human cancer cells were exposed to compound solutions ranging in concentration from 100 µM to 0.01 µM. As a reference compound for these assays, we used 5-Fluorouracil (5-FU), a pyrimidine analog from the antimetabolite family.
The MTT assay was also performed for the selected antibiotics to evaluate the effect of their combined treatment with PB4.
To evaluate the effect of the heteroaryl ethylene compounds and the antibiotics, an MTT ([3-(4,5-dimethylthiazol-2-yl)-2,5-diphenyltetrazolium bromide]) assay was performed as previously described. […] Both concentrations were also tested in combination with PB4 0.2 µM. All antibiotics were provided by Thermo Scientific^TM Oxoid^TM, Basingstoke, UK. Twenty-four hours after plating, the cells were treated with 20 μL of each solution. Untreated cells were used as controls. […] The IC50 values were calculated by nonlinear regression analysis using GraphPad Prism 6.0 software.

all tested strains = assay: Broth microdilution MIC, summary over all tested strains; assay type: cell-based; conditions: all tested bacterial strains; antibiotic + PB4
S. aureus ATCC29213 = conditions: QSAR dataset; cited from earlier work
[5] = ATCC29212, E. faecalis ATCC 29212, substance alone, read-out: MIC
[6] = ATCC29213, S. aureus ATCC 29213, substance alone, read-out: MIC
[7] = ATCC12598, S. aureus ATCC 12598, substance alone, read-out: MIC
[8] = Caco-2, 24 h, 24 h of treatment, read-out: IC50 at 24 h
[9] = Caco-2, 48 h, 48 h of treatment, read-out: IC50 at 48 h

SMILES: C[n+]1ccccc1/C=C/c1ccc(N(c2ccccc2)c2ccccc2)cc1 [GC VII 47]
IC50 [1]: 1000 nM
Log(IC50) 48h [1]: 0

MIC (E. faecalis ATCC 29212; [5]): 16 µg/mL and 30.4 µM
MIC (S. aureus ATCC 29213; [6]): 128 µg/mL and 244 µM
MIC (S. aureus ATCC 12598; [7]): 32 µg/mL and 60.9 µM
MIC [2]: > 128 µg/mL and > 244 µM
MIC [3]: ≥ 128 µg/mL and ≥ 244 µM
MIC (A. baumannii ATCC 17978): ≥ 128 µg/mL and ≥ 244 µM
MIC (P. aeruginosa ATCC 27853): ≥ 128 µg/mL and ≥ 244 µM
MIC (S. enterica ATCC 14028): ≥ 128 µg/mL and ≥ 244 µM
MIC (E. coli ATCC 25922): ≥ 128 µg/mL
SMILES: C[n+]1c(/C=C/c2ccc3ccccc3c2)cccc1/C=C/c1ccc2ccccc2c1 [GC-VII-39]
IC50 [4, 8]: 230 nM
IC50 [4, 9]: 180 nM

SMILES: CN(C)c1ccc(/C=C/C=C/c2cccc[n+]2C)cc1 [GF I 25]
IC50 [1]: 10000 nM
Log(IC50) 48h [1]: 1

SMILES: Cn1c(/C=C/c2ccncc2)ccc1/C=C/c1cc[n+](C)cc1 [GF I 30]
IC50 [1]: 50000 nM
Log(IC50) 48h [1]: 1.70

SMILES: Cn1c(/C=C/C2=C(C#N)C(=C(C#N)C#N)OC2(C)C)ccc1/C=C/c1cc[n+](C)cc1 [GF I 32]
IC50 [1]: 32000 nM
Log(IC50) 48h [1]: 1.51

SMILES: CC(=O)NC[C@H]1CN(c2ccc(N3CCOCC3)c(F)c2)C(=O)O1 [Linezolid, linezolid, reference compound]
MIC (E. faecalis ATCC 29212; [5]): 4 µg/mL (≈ 11.9 µM)
MIC (S. aureus ATCC 29213; [6]): 4 µg/mL (≈ 11.9 µM)
MIC (S. aureus ATCC 12598; [7]): 4 µg/mL (≈ 11.9 µM)
MIC [2]: 2 µg/mL (≈ 5.93 µM)
MIC reduction in combination with PB4 (all tested strains): no significant MIC reductions

SMILES: CCCCN(CCCC)c1ccc(-c2ccc(/C=C/c3ccc4ccccc4[n+]3C)s2)s1 [PB2]
MIC (S. aureus ATCC29213): 4 µg/mL

Reduction of PB4 MIC in combination with GC-VI-70 (E. faecalis ATCC 29212; E. faecalis ATCC 29212): 2 logs
MIC of PB4 + GC-VI-70 combination (E. faecalis ATCC 29212; E. faecalis ATCC 29212, PB4 fixed at its MIC for the strain, GC-VI-70 128 to 0.125 mg/L): 0.06 µg/mL
MIC (E. faecalis ATCC 29212; [5]): 0.5 µg/mL and 0.98 µM
MIC (S. aureus ATCC 29213; [6]): 0.125 µg/mL and 0.24 µM
Reduction of PB4 MIC in combination with GC-VI-70 (S. aureus ATCC 12598; S. aureus ATCC 12598): 2 logs
MIC of PB4 + GC-VI-70 combination (S. aureus ATCC 12598; S. aureus ATCC 12598, PB4 fixed at its MIC for the strain, GC-VI-70 128 to 0.125 mg/L): 0.06 µg/mL
MIC (S. aureus ATCC 12598; [7]): 0.25 µg/mL and 0.49 µM
MIC [2]: ≤ 0.125 µg/mL and ≤ 0.24 µM
MIC [3]: 64 µg/mL and 125 µM
MIC (A. baumannii ATCC 17978): ≤ 0.125 µg/mL and ≤ 0.24 µM
MIC (P. aeruginosa ATCC 27853): > 128 µg/mL and > 250 µM
MIC (S. enterica ATCC 14028): 64 µg/mL and 125 µM
MIC (E. coli ATCC 25922): 2 µg/mL and 3.91 µM
SMILES: CN(C)c1ccc(/C=C/c2cccc(/C=C/c3ccc(N(C)C)cc3)[n+]2C)cc1 [PB4]
Percentage of cell growth, PB4 0.2 µM ([4]; CaCo-2, PB4 alone 0.2 µM, 48 h): 72.7%
IC50 [4, 8]: 310 nM
IC50 [4, 9]: 300 nM
MIC (S. aureus ATCC29213): 0.25 µg/mL

SMILES: C[n+]1ccc(/C=C/c2ccc(-c3cc(Cl)ccc3Cl)o2)cc1 [PB6]
MIC (S. aureus ATCC29213): 4 µg/mL

SMILES: CC[n+]1ccc2c(c1)CCC/C2=C\c1ccc(-c2ccc(Cl)cc2)o1 [PB7]
MIC (S. aureus ATCC29213): 4 µg/mL

SMILES: CCCCN(CCCC)c1ccc(-c2ccc(/C=C3\CCCc4c[n+](CC)ccc43)s2)s1 [PB8]
MIC (S. aureus ATCC29213): 2 µg/mL

SMILES: CO[C@H]1/C=C/O[C@@]2(C)Oc3c(C)c(O)c4c(O)c(c(/C=N/N5CCN(C)CC5)c(O)c4c3C2=O)NC(=O)/C(C)=C\C=C\[C@H](C)[C@H](O)[C@@H](C)[C@@H](O)[C@@H](C)[C@H](OC(C)=O)[C@@H]1C [Rifampin, rifampin, reference compound]
MIC of antibiotic in combination with PB4 (E. faecalis ATCC 29212; E. faecalis ATCC 29212, PB4 at fixed 0.125 μg/mL (0.24 μM), a quarter of an MIC value): 0.006 µg/mL
Reduction of antibiotic MIC by PB4 (E. faecalis ATCC 29212; E. faecalis ATCC 29212, antibiotic + PB4 vs antibiotic alone): 2 -fold log reduction
MIC (E. faecalis ATCC 29212; ATCC29212): 0.125 µg/mL (≈ 0.152 µM)
MIC (E. faecalis ATCC 29212; [5]): 0.25 µg/mL (≈ 0.304 µM)
MIC (S. aureus ATCC 29213; ATCC29213): 0.125 µg/mL (≈ 0.152 µM)
MIC (S. aureus ATCC 12598; ATCC12598): 0.125 µg/mL (≈ 0.152 µM)
Reduction of antibiotic MIC by PB4 ([2]; S. aureus USA 300, antibiotic + PB4 vs antibiotic alone): 4 -fold log reduction
MIC [2]: 0.125 µg/mL (≈ 0.152 µM)
Percentage of cell growth, antibiotic ([4]; CaCo-2, antibiotic alone at MIC for E. faecalis ATCC 29212, 24 h): 133.7%
Percentage of cell growth, antibiotic ([4]; CaCo-2, antibiotic alone at MIC for E. faecalis ATCC 29212, 48 h): 282.6%
Percentage of cell growth, antibiotic ([4]; CaCo-2, antibiotic alone at sub-MIC (half-MIC), 24 h): 146.6%
Percentage of cell growth, antibiotic ([4]; CaCo-2, antibiotic alone at sub-MIC (half-MIC), 48 h): 265.6%
Percentage of cell growth, antibiotic + PB4 0.2 µM ([4]; CaCo-2, antibiotic at MIC + PB4 0.2 µM, 24 h): 126.9%
Percentage of cell growth, antibiotic + PB4 0.2 µM ([4]; CaCo-2, antibiotic at MIC + PB4 0.2 µM, 48 h): 158.9%
Percentage of cell growth, antibiotic + PB4 0.2 µM ([4]; CaCo-2, antibiotic at sub-MIC + PB4 0.2 µM, 24 h): 130.6%
Percentage of cell growth, antibiotic + PB4 0.2 µM ([4]; CaCo-2, antibiotic at sub-MIC + PB4 0.2 µM, 48 h): 163.7%

SMILES: CCn1cc(/C=C/c2sc3ccccc3[n+]2CC)c2ccccc21 [SBT, reference compound]
MIC (S. aureus ATCC29213): 1 µg/mL

SMILES: CCn1cc(/C=C/c2ccc3ccccc3[n+]2CC)c2ccccc21 [SQL, reference compound]
MIC (S. aureus ATCC29213): 4 µg/mL
